How the values were obtained:
[1] = system: pooled human liver S9 fraction (pHLS9); experiment: Incubations using pooled human liver S9 fraction; conditions: 25 µM parent, 60 and 360 min
Procedure: In short, 25 μg/mL alamethicin (UGT reaction mix B), pHLS9 (2 mg microsomal protein/mL), 2.5 mM isocitrate, 0.8 U/mL isocitrate dehydrogenase, 100 U/mL superoxide dismutase, 0.6 mM NADP^+, and 2.5 mM Mg^2+ were preincubated for 10 min at 37 °C. Then, 2.5 mM UDP-glucuronic acid (UGT reaction mix A), 40 µM PAPS, 1.2 mM SAM, 1 mM DTT, and 10 mM GSH were added. The reaction was started by adding the substrate (25 µM each, final), resulting in a final incubation volume of 150 µL. MDMA or quetiapine (25 µM and 250 µM final concentrations) was incubated as positive controls. […] Incubations were performed in triplicate and organic solvent in the incubation mixture was below 1% (Chauret et al. [1998]). After an incubation time of 60 and 360 min, aliquots (50 µL) were transferred to a new reaction tube. The reaction was stopped with 30 µL acetonitrile (−20 °C) containing 2.5 µM trimipramine-d3 as an internal standard. Samples were vortexed, stored at −20 °C for 30 min, and centrifuged for 2 min at 18,407 × g. 70 µL of the supernatant were transferred to autosampler vials and 5 µL was injected onto the LC–HRMS/MS system.

HepaRG cells = experiment: Incubations using HepaRG cells; conditions: 25 µM parent, 24 h
Procedure: Cell incubations were performed in a monolayer assay (Kroesen et al. [2025]) and in accordance with the manufacturer’s instructions.
All incubations were performed in triplicate, with each well containing 0.5% (v/v) DMSO. Following incubation, 50 µL of the medium supernatant was transferred to a new reaction tube and precipitated with 30 µL of acetonitrile cooled to −20 °C, containing 2.5 µM trimipramine-d3 as an internal standard. […] The mixture was vortexed and centrifuged for 2 min at 18,407 × g. A volume of 70 µL of the supernatant was transferred into an autosampler vial and 5 µL was injected onto the LC–HRMS/MS system.
HepaRG cells were thawed and resuspended in 13.5 mL (~ 740,000 cells/mL) thaw
and seed medium at 37 °C. Thaw and seed medium consisted of Williams E medium,
100 U/mL penicillin, 100 µg/mL streptomycin, GlutaMAX, and HPRG670 supplement.
Cells were handled under sterile conditions using a laminar flow bench class II (Thermo
Scientific, TF, Schwerte, Germany). Aliquots of 100 µL cell suspension were seeded
on collagen-coated 96-well plates (~ 74,000 cells/well). Evaporation was minimized by
filling the outer wells with 100 µL thaw and seed medium. Cells were preincubated for
4 h in an incubator (Binder, Tuttlingen, Germany) at 37 °C, 95 % air humidity, and 5 %
CO2. After preincubation, 50 µL of the thaw and seed medium was replaced with 50 µL
solution of each cathinone (25 µM) in thaw and seed medium, followed by an
incubation for 24 h at 37 °C, 95 % air humidity, and 5 % CO2 atmosphere.
A Thermo Fisher ( TF, Dreieich, Germany) Dionex UltiMate 3000 RS pump consisting
of a degasser, a quaternary pump, and an autosampler, coupled to a TF Q Exactive
Plus system equipped with a heated electrospray ionization (HESI)-II source were
used. A mass calibration was done according to the manufacturer's recommendations
using external mass calibration prior to analysis. Gradient elution was performed on a
TF Accucore PhenylHexyl column (100 mm x 2.1 mm, 2.6 μm) with a 2 mM aqueous
ammonium formate solution containing 0.1 % (v/v) formic acid (pH 3, eluent A) and 2
mM ammonium formate solution in acetonitrile/methanol (50:50, v/v) containing 0.1 %
(v/v) formic acid, and 1 % (v/v) water (eluent B). The gradient was stepped as follows:
hold 99 % A. Initial flow rate from 0–9.5 min was 500 μL/min and final flow rate was
800 μL/min from 9.5–11.5 min. Mass spectrometry was performed using full scan data
and a subsequent data-dependent acquisition (DDA) with priority to mass-to-charge
ratios (m/z) of parent compounds and their expected metabolites. The inclusion list
contained m/z values of likely formed metabolites such as O- or S-desmethyl, hydroxy,
and oxo reduction metabolites (phase I) as well as sulfates, glucuronides (phase II),
and combinations thereof.
TF Xcalibur Qual Browser software […]

CYP2C19 = target: T1, CYP2C19 (Homo sapiens, UniProt P33261); experiment: Monooxygenases activity screening, CYP2C19; type: in vitro ADME; parameters: key: +, detected; -, not detected; conditions: substrate 4MeS-NE-BP 25 µM, 30 min, 37 °C; Table S3.4
T1 construct: purchased Discovery Life Sciences (Huntsville, LA, USA); host or cells: baculovirus-infected insect cells (microsomes, Supersomes)
T1 sequence (P33261 whole entry): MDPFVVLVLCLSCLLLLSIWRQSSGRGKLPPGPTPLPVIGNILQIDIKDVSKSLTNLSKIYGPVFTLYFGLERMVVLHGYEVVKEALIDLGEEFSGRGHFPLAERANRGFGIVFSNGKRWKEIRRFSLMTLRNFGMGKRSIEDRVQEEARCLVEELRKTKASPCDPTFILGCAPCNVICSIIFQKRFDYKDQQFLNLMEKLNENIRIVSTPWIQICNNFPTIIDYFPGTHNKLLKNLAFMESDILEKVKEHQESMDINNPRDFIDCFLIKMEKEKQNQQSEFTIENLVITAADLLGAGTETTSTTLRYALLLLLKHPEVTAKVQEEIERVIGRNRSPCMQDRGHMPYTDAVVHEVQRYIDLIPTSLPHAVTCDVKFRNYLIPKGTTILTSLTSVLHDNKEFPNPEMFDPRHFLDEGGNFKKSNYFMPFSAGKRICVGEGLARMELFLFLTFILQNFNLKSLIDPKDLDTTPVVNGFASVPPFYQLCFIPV
Procedure: (§1) For incubations with CYP2A6 or CYP2C9, phosphate buffer was replaced with 90 mM Tris buffer, according to the manufacturer’s guideline. […] All incubations were done in duplicate and concentrations were fixed. Verapamil (25 µM) was incubated as a positive control.

CYP3A4 = target: T2, CYP3A4 (Homo sapiens, UniProt P08684); experiment: Monooxygenases activity screening, CYP3A4; type: in vitro ADME; parameters: key: +, detected; -, not detected; conditions: substrate 4MeS-NE-BP 25 µM, 30 min, 37 °C; Table S3.4
T2 construct: purchased Discovery Life Sciences (Huntsville, LA, USA); host or cells: baculovirus-infected insect cells (microsomes, Supersomes)
T2 sequence (P08684 whole entry): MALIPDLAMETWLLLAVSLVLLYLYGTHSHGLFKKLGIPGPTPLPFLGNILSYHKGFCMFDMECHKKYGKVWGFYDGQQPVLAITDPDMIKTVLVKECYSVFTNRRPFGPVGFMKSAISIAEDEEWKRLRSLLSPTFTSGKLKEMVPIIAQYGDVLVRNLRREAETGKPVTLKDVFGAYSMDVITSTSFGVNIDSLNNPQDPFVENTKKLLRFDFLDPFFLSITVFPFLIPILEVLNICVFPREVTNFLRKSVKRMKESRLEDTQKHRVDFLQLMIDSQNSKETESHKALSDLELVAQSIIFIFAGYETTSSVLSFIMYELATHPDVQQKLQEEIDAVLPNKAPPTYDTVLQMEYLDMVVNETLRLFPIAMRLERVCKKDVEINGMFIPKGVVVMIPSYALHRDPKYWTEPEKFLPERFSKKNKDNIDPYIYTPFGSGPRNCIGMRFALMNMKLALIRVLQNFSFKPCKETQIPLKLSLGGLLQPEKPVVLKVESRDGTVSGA
Procedure: as §1

CYP2A6 = target: T3, CYP2A6 (Homo sapiens, UniProt P11509); experiment: Monooxygenases activity screening, CYP2A6; type: in vitro ADME; parameters: key: +, detected; -, not detected; conditions: substrate 4MeS-NE-BP 25 µM, 30 min, 37 °C; Table S3.4
T3 construct: purchased Discovery Life Sciences (Huntsville, LA, USA); host or cells: baculovirus-infected insect cells (microsomes, Supersomes)
T3 sequence (P11509 1-494): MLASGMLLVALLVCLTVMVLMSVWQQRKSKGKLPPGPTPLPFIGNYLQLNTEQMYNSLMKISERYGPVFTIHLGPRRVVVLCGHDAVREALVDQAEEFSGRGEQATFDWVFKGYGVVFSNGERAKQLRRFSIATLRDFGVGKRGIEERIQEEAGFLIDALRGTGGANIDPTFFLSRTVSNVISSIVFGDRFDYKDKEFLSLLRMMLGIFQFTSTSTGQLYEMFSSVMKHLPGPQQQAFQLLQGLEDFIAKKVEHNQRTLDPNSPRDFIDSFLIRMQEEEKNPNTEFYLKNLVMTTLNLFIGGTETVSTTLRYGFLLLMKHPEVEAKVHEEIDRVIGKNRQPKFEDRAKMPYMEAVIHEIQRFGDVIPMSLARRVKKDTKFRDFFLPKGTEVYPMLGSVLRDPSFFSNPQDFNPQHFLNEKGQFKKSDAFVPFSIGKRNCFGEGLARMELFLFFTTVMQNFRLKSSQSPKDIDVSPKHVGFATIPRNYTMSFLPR
Procedure: as §1

CYP1A2 = target: T4, CYP1A2 (Homo sapiens, UniProt P05177); experiment: Monooxygenases activity screening, CYP1A2; type: in vitro ADME; parameters: key: +, detected; -, not detected; conditions: substrate 4MeS-NE-BP 25 µM, 30 min, 37 °C; Table S3.4
T4 construct: purchased Discovery Life Sciences (Huntsville, LA, USA); host or cells: baculovirus-infected insect cells (microsomes, Supersomes)
T4 sequence (P05177 1-516): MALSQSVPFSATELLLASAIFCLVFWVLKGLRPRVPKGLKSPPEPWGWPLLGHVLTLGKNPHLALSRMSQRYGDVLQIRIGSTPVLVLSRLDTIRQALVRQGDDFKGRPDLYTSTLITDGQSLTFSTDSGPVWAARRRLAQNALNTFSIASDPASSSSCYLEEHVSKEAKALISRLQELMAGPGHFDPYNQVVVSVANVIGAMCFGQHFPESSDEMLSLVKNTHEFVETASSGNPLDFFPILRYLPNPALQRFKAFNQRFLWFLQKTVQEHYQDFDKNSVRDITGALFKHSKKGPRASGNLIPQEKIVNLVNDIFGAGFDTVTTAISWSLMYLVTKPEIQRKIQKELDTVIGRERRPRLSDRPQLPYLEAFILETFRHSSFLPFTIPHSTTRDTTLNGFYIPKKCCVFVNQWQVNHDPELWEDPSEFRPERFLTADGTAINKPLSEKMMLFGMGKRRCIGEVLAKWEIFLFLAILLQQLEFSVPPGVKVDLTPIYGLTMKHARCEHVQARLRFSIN
Procedure: as §1

CYP2C9 = target: T5, CYP2C9 (Homo sapiens, UniProt P11712); experiment: Monooxygenases activity screening, CYP2C9; type: in vitro ADME; parameters: key: +, detected; -, not detected; conditions: substrate 4MeS-NE-BP 25 µM, 30 min, 37 °C; Table S3.4
T5 construct: purchased Discovery Life Sciences (Huntsville, LA, USA); host or cells: baculovirus-infected insect cells (microsomes, Supersomes)
T5 sequence (P11712 whole entry): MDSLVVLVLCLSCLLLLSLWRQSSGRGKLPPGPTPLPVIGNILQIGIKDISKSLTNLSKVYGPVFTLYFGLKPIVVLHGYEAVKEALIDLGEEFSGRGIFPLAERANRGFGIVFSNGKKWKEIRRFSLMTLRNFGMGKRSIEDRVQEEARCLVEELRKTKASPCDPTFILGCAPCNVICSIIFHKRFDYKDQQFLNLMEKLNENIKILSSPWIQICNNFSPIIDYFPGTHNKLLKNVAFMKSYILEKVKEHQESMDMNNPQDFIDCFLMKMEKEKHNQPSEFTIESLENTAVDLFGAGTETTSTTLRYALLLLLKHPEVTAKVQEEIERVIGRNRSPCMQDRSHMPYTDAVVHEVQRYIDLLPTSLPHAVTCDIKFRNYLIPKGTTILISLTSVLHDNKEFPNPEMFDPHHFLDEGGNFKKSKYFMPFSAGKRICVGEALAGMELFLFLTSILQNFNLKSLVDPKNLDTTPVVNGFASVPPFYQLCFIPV
Procedure: as §1

CYP2C8 = target: T6, CYP2C8 (Homo sapiens, UniProt P10632); experiment: Monooxygenases activity screening, CYP2C8; type: in vitro ADME; parameters: key: +, detected; -, not detected; conditions: substrate 4MeS-NE-BP 25 µM, 30 min, 37 °C; Table S3.4
T6 construct: purchased Discovery Life Sciences (Huntsville, LA, USA); host or cells: baculovirus-infected insect cells (microsomes, Supersomes)
T6 sequence (P10632 1-490): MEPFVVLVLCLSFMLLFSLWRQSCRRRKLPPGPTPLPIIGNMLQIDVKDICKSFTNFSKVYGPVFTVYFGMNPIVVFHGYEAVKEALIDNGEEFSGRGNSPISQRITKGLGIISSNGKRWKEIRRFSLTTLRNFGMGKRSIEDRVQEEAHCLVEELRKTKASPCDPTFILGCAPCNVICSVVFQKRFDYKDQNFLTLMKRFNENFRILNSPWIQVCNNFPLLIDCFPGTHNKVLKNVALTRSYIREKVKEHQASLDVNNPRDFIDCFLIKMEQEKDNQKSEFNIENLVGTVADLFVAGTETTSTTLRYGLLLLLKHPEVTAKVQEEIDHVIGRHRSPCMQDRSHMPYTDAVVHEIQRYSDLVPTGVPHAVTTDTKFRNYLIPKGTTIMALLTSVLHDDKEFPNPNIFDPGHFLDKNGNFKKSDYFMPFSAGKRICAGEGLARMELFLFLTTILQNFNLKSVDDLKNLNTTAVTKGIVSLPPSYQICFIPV
Procedure: as §1

[2] = target: T7, flavin-containing monooxygenase 3 (FMO3) (Homo sapiens, UniProt P31513); experiment: Monooxygenases activity screening, FMO3; type: in vitro ADME; parameters: key: +, detected; -, not detected; conditions: substrate 4MeS-NE-BP 25 µM, 30 min, 37 °C; Table S3.4
T7 construct: purchased Discovery Life Sciences (Huntsville, LA, USA); host or cells: baculovirus-infected insect cells (microsomes, Supersomes)
T7 sequence (P31513 1-532): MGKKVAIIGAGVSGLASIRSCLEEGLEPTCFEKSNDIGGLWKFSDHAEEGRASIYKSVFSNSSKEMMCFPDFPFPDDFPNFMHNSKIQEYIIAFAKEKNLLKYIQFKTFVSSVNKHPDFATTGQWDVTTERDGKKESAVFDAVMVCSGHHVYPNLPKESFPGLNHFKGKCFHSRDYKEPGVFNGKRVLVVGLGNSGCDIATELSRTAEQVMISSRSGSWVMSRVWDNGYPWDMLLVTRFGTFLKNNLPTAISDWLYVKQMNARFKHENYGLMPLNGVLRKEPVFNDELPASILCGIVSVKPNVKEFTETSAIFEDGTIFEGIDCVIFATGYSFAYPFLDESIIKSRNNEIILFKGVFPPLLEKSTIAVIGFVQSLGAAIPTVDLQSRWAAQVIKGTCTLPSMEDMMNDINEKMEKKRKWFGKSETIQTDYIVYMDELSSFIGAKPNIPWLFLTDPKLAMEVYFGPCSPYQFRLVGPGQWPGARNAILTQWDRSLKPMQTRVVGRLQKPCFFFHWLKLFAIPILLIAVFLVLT
Procedure: as §1

CYP3A5 = target: T8, CYP3A5 (Homo sapiens, UniProt P20815); experiment: Monooxygenases activity screening, CYP3A5; type: in vitro ADME; parameters: key: +, detected; -, not detected; conditions: substrate 4MeS-NE-BP 25 µM, 30 min, 37 °C; Table S3.4
T8 construct: purchased Discovery Life Sciences (Huntsville, LA, USA); host or cells: baculovirus-infected insect cells (microsomes, Supersomes)
T8 sequence (P20815 whole entry): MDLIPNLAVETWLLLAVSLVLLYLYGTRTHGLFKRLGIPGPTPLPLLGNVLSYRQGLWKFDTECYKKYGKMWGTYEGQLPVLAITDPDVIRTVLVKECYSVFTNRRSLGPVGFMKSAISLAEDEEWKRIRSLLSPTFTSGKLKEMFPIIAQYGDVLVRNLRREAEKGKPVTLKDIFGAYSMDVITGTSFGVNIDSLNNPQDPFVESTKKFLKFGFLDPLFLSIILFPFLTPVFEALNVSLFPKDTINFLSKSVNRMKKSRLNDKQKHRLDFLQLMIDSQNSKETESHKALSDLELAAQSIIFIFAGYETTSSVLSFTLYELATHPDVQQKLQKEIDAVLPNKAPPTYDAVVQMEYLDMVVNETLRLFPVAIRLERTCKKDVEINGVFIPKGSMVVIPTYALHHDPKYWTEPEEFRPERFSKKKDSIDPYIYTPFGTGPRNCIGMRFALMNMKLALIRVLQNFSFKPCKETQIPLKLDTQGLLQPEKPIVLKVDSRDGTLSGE
Procedure: as §1

CYP2B6 = target: T9, CYP2B6 (Homo sapiens, UniProt P20813); experiment: Monooxygenases activity screening, CYP2B6; type: in vitro ADME; parameters: key: +, detected; -, not detected; conditions: substrate 4MeS-NE-BP 25 µM, 30 min, 37 °C; Table S3.4
T9 construct: purchased Discovery Life Sciences (Huntsville, LA, USA); host or cells: baculovirus-infected insect cells (microsomes, Supersomes)
T9 sequence (P20813 1-491): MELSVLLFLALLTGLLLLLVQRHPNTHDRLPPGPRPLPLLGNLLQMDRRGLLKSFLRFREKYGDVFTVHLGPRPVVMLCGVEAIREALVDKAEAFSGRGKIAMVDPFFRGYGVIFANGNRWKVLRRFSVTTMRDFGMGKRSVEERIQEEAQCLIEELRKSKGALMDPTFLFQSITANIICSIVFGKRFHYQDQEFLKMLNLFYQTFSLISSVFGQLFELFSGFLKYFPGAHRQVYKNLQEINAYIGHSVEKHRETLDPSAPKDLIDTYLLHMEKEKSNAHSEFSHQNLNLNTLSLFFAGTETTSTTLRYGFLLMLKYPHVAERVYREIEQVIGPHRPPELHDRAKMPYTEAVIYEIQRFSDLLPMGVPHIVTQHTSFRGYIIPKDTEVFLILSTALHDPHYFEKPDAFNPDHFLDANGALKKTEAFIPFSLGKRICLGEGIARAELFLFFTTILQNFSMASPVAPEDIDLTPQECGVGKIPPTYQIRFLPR
Procedure: as §1

CYP2E1 = target: T10, CYP2E1 (Homo sapiens, UniProt P05181); experiment: Monooxygenases activity screening, CYP2E1; type: in vitro ADME; parameters: key: +, detected; -, not detected; conditions: substrate 4MeS-NE-BP 25 µM, 30 min, 37 °C; Table S3.4
T10 construct: purchased Discovery Life Sciences (Huntsville, LA, USA); host or cells: baculovirus-infected insect cells (microsomes, Supersomes)
T10 sequence (P05181 whole entry): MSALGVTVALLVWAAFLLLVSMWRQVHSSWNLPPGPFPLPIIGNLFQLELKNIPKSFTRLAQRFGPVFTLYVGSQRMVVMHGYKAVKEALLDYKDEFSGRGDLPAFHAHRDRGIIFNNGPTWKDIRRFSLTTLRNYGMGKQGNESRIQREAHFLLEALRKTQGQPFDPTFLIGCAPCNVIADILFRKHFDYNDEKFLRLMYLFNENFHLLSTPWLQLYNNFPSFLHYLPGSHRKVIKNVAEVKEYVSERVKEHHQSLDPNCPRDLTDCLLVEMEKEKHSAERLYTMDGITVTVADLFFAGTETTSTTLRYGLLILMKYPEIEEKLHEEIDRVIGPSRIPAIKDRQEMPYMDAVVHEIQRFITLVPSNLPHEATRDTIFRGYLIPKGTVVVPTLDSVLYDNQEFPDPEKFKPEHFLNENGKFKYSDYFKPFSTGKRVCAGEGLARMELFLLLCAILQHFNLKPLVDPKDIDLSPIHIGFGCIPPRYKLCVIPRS
Procedure: as §1

CYP2D6 = target: T11, CYP2D6 (Homo sapiens, UniProt P10635); experiment: Monooxygenases activity screening, CYP2D6; type: in vitro ADME; parameters: key to one-step metabolite detected in CYP2D6 incubation: +, detected; -, not detected; conditions: substrate 4MeS-NE-BP 25 µM, 30 min, 37 °C; Table S3.4
T11 construct: purchased Discovery Life Sciences (Huntsville, LA, USA); host or cells: baculovirus-infected insect cells (microsomes, Supersomes)
T11 sequence (P10635 whole entry): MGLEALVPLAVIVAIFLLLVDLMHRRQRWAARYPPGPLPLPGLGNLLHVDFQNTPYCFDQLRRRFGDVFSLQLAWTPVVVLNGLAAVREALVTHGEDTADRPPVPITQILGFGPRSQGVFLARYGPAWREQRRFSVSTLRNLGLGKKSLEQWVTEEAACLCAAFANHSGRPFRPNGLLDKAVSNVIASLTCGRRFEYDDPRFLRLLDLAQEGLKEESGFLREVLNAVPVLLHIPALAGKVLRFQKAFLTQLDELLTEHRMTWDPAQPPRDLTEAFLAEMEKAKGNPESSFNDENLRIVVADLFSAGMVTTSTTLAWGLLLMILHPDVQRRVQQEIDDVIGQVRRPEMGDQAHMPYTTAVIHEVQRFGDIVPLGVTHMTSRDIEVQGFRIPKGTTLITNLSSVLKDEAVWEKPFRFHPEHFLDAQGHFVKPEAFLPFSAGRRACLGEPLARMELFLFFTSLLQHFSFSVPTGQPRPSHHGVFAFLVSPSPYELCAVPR
Procedure: as §1

`CCCC(C(=O)c1ccc(OC2OC(C(=O)O)C(O)C(O)C2O)cc1)N1CCCC1` (stereo not drawn) [MO3.10] was tested, and the “metabolite detection in pHLS9” value [1] was “could not be detected” and the “metabolite detection in HepaRG incubations” value (HepaRG cells) was “observed in HepaRG incubations”.
`CCC(C(=O)c1ccc(SC)cc1)N(O)CC` (stereo not drawn) [MT1.4] was tested, and the “one-step metabolite detected in CYP2C19 incubation” value (CYP2C19) was “-”, the “one-step metabolite detected in CYP3A4 incubation” value (CYP3A4) was “+” and the “one-step metabolite detected in CYP2A6 incubation” value (CYP2A6) was “-”. The “one-step metabolite detected in CYP1A2 incubation” value (CYP1A2) was “+”, the “one-step metabolite detected in CYP2C9 incubation” value (CYP2C9) was “-” and the “one-step metabolite detected in CYP2C8 incubation” value (CYP2C8) was “-”. The “one-step metabolite detected in FMO3 incubation” value [2] was “+”, the “metabolite detection in HepaRG incubations” value (HepaRG cells) was “only detected in HepaRG incubations” and the “one-step metabolite detected in CYP3A5 incubation” value (CYP3A5) was “+”. For the same molecule, the “one-step metabolite detected in CYP2B6 incubation” value (CYP2B6) was “-”, the “one-step metabolite detected in CYP2E1 incubation” value (CYP2E1) was “-” and the “one-step metabolite detected in CYP2D6 incubation” value (CYP2D6) was “+”.
`CCC(N)C(=O)c1ccc(SC)cc1` (stereo not drawn) [MT2.5] was tested, and the “metabolite detection in HepaRG incubations” value (HepaRG cells) was “only detected in HepaRG incubations”.
